Literature values, collected in patent US10729136B2, “Synergistic herbicidal composition and use thereof” (priority 2015, dated 2020).

Key:
[1] = 0.05% Rhodasurf DA630 solution, pH 5.5, after 10 days

CS(=O)(=O)c1ccc(C(=O)C2C(=O)CCCC2=O)c([N+](=O)[O-])c1 [Form 2, 2-(4-mesyl-2-nitrobenzoyl)cyclohexane-1,3-dione]
Polymorphic form (microscopy, FT-IR) [1]: still predominately Form 2 | Polymorphic form of the suspension, determined periodically (pH between 3.5 and 4, over 3 weeks): always found to be Form 2 | Time for Form 2 to transform to Form 1 (stirred aqueous suspension, below pH 2.5): ≤ 1 h | Conversion of Form 2 to Form 1 when seeded (stirred aqueous suspension, pH 3, seeded with Form 1): converted to Form 1 when seeded with Form 1 over four hours | Polymorphic stability of Form 2 (stirred aqueous suspension, pH 3, unseeded): stable
